In assay [1] the target is T1, MRGPRX1 (Homo sapiens, UniProt Q96LB2).
T1 construct: we fused a BRIL tag at the N-terminus of full-length wild-type MRGPRX1; FLAG; expressed in transfected cells; host or cells: HEK293
The assay is classed as cell-based. Set-up: Emax: unit not given here. The conditions noted are these: for Δpec50: Fig 3d, CNF-Tx2 mutant peptide vs CNF-Tx2 WT; for Emax: Suppl Fig 9a, CNF-Tx2 WT and mutant peptides. Here is the method: (§1) Human Embryonic Kidney 293 (HEK293) cells were obtained from the Cell Resource Center of Shanghai Institute for Biological Sciences (Chinese Academy of Sciences, Shanghai, China) and cultured in DMEM with 10% FBS for functional studies. Transient transfection in the current study was performed with Lipofectamine 2000 (Invitrogen), according to the manufacturer’s instructions. For studying the peptide-induced G-protein activation through MRGPRX1, G-protein BRET probes were generated according to previous publications[13],[30],[31]. HEK293 cells were transfected with plasmids MRGPRX1 and G-protein probes. After 24 h, cells were reseeded into a 96-well plate with a density of 30,000-50,000 cells per well and incubated for an additional 24 h at 37 °C. For peptide-stimulated activity measurement, the BRET signal between Rluc8 and GFP2 was recorded after the addition of peptide ligands (final concentration:10^−10 – 10^−3 M) and coelenterazine 400a. The BRET signal was calculated as the ratio of the GFP2 emission to the Rluc8 emission.

In assay [2] the test system is MRGPRX2. As to the kind of experiment: Gαi-Gγ dissociation assay (BRET). The conditions noted are these: Fig 1e. The assay is classed as cell-based, human. From the text: Fig. 1 Cryo-EM structure of MRGPRX1-Gi1/Gq complexes. a Cryo-EM density map of the BAM8-22-MRGPRX1-Gi1/Gq complexes and CNF-Tx2-MRGPRX1-Gi1 complex. b EM density maps of BAM8-22 in MRGPRX1-Gi1/Gq complexes and CNF-Tx2 in MRGPRX1-Gi1 complex. BAM8-22 in MRGPRX1-Gi1/Gq complexes, hot pink/cyan; CNF-Tx2, light pink; MRGPRX1, cornflower blue, salmon, and medium aquamarine from left to right; Gαi, dark orange; Gαq, yellow; Gβ, wheat; Gγ, light blue; scFv16 (single-chain variable fragment), gray. c Cut-away view of the ligand-binding pocket in the BAM8-22-MRGPRX1-Gi1/Gq, CNF-Tx2-MRGPRX1-Gi1, PAMP-12-MRGPRX2-Gi1 and KCA-CB1-Gi1 complexes. d The binding modes of the peptide agonists of MRGPRX1 compared with MRGPRX2. e The selectivity of different ligands for MRGPRX1 and MRGPRX2 was evaluated using Gαi-Gγ dissociation assay. Data are mean ± SEM of three independent experiments (n = 3). ΔBRET indicates the difference between the BRET signal recorded from cells treated with ligand and that from cells treated with vehicle.
Human Embryonic Kidney 293 (HEK293) cells were obtained from the Cell Resource Center of Shanghai Institute for Biological Sciences (Chinese Academy of Sciences, Shanghai, China) and cultured in DMEM with 10% FBS for functional studies. […] The BRET signal was calculated as the ratio of the GFP2 emission to the Rluc8 emission.

Assay [3] concerns the target T1, MRGPRX1. As to the kind of experiment: Ligand bias factor (β value), Gi vs Gq, BAM8-22 as reference. The class given is cell-based. As to conditions: Suppl Fig 11f-h. Here is the method: as §1, with “emission. […]” for “emission.”
are presented as the mean ± SEM (n=3). All data were analyzed by two-sided one-way ANOVA with Turkey test. […] Both CNF-Tx2 and Chloroquine were assessed for Gi signaling (f) and Gq signaling (g). The bias factor (β value) of CNF-Tx2 and Chloroquine was calculated using BAM8-22 as the reference.
R3c). The β value was calculated according to formulas. […]

Read-outs that look alike come from different tables or passages of the source. Ends that are not written are not given here.

T1 sequence (Q96LB2 whole entry, the tested form may be a part): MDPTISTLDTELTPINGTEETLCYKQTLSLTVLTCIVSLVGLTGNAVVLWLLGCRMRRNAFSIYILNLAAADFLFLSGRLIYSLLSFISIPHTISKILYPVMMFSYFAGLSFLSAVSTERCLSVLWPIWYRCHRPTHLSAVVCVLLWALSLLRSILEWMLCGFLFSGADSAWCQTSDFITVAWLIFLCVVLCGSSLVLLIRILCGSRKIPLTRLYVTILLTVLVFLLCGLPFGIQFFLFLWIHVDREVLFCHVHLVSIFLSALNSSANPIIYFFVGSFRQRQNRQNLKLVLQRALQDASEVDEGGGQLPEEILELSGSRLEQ

As for “Hemoglobin b-chain(34-42): hemoglobin β-chain fragment, peptide ligand of MRGPRX1 (VVYPWTQRF; UniProt P68871 34-42, looked up, fragment) [reference compound]”, the “potency and efficacy at MRGPRX1” value in assay [1] (Suppl Fig 11c) is “reasonable potency and efficacy”.

For “HSGILLAWSGPRNRF-NH2 (C-terminus assumed) [ΔVRI]”, the Δpec50 in assay [1] (replicate 2) is on record as -0.3933; in assay [1] (replicate 3), -0.1993. Also, the Emax was 5.805 in assay [1] (replicate 1), 0.1588 in assay [1] (replicate 2) and -0.003279 in assay [1] (replicate 3). In addition, the “effect of C-terminal truncation on MRGPRX1 activity” value in assay [1] (compared to CNF-Tx2 wide-type peptide, Fig R4) was “almost abolished the activity of MRGPRX1”.

Turning to “HSGILLAWSGPRNRAVRI-NH2 (C-terminus assumed) [F15A]”, the Δpec50 in assay [1] (replicate 2) is -6.871; in assay [1] (replicate 3), -1.837. For the same compound, the Emax in assay [1] (replicate 1) is on record as -0.06154; in assay [1] (replicate 3) it was -0.06172.

With “bovine adrenal medulla peptide (BAM) 8-22 [BAM8-22]”, the “recognition by MRGPRX2” value in assay [2] is given as “cannot be recognized by MRGPRX2”.

As for `CCN(CC)CCCC(C)Nc1ccnc2cc(Cl)ccc12` (stereo not shown) [Chloroquine, chloroquine], the “bias property, Gi vs Gq” value in assay [3] was “Gq bias ligand”.

Values taken from PMC10435460, “Ligand recognition and G protein coupling of the human itch receptor MRGPRX1” (Nature Communications, 2023).
